Results taken from ChEMBL document CHEMBL1121748, “Antimycotic imidazoles. 5. Synthesis and antimycotic properties of 1-[[2-aryl-4-(arylalkyl)-1,3-dioxolan-2-yl]methyl]-1H-imidazoles” (1981).

How the values were obtained:
Sporothrix schenckii = assay: Antifungal activity against Sporothrix schenck ii; assay type: functional
Microsporum canis = assay: Antifungal activity against Microsporum canis; assay type: functional
Streptococcus pyogenes = assay: Antibacterial activity against Streptococcus pyogenes; assay type: functional
[1] = test system: Staphylococcus haemolyticus; assay: Antibacterial against Staphylococcus hemolyticus; assay type: functional
Trichophyton rubrum = assay: Antifungal activity against Trichophyton rubrum; assay type: functional
Saprolegnia = assay: Antifungal activity against Saprolegnia species; assay type: functional
Phialophora verrucosa = assay: Antifungal activity against Phialophora verrucosa; assay type: functional
Cryptococcus neoformans = assay: Antifungal activity against Cryptococcus neoformans; assay type: functional
Candida tropicalis = assay: Antifungal activity against Candida tropicalis; assay type: functional
Mucor = assay: Antifungal activity against Mucor species; assay type: functional
[2] = test system: Erysipelothrix rhusiopathiae; assay: Antibacterial activity against Erysipelothrix insidiosa; assay type: functional
Candida albicans = assay: Antifungal activity against Candida albicans; assay type: functional
Trichophyton benhamiae = assay: Antifungal activity against Trichophyton mentagrophytes; assay type: functional, trychophyton mentagrophytes
Aspergillus fumigatus = assay: Antifungal activity against Aspergillus fumigatus; assay type: functional
[3] = Ratio of animals cured to that of animals infected, tested in vivo for antifungal activity against cutaneous candidosis in guinea pig; 0/2; assay type: functional; also: test concentration or dose not given here
[4] = Ratio of animals cured to that of animals infected, tested in vivo for antifungal activity against vaginal candidosis in rat; 0/2; also: test concentration or dose not given here

Row | SMILES | Inhibition (Sporothrix schenckii) | Inhibition (Microsporum canis) | Inhibition (Streptococcus pyogenes) | Inhibition [1] | Inhibition (Trichophyton rubrum) | Inhibition (Saprolegnia) | Inhibition (Phialophora verrucosa) | Inhibition (Cryptococcus neoformans) | Inhibition (Candida tropicalis) | Inhibition (Mucor) | Inhibition [2] | Inhibition (Candida albicans) | Inhibition (Trichophyton benhamiae) | Inhibition (Aspergillus fumigatus) | Ratio [3] | Ratio [4]
1 | Clc1ccc(C2(Cn3ccnc3)OCC(c3ccccc3Cl)O2)c(Cl)c1 (centres undefined) | 10 µg/mL | 10 µg/mL | <1 µg/mL | 1 µg/mL | <1 µg/mL | 100 µg/mL | 100 µg/mL | <1 µg/mL | 100 µg/mL | 100 µg/mL | <1 µg/mL | 100 µg/mL | <1 µg/mL | 100 µg/mL |  | 
2 | Cc1ccc(C2(Cn3ccnc3)OCC(c3ccc(Cl)cc3)O2)cc1 (centres undefined) | 10 µg/mL | <1 µg/mL | <1 µg/mL | 10 µg/mL | <1 µg/mL | 100 µg/mL | 100 µg/mL | <1 µg/mL | 100 µg/mL | 10 µg/mL | <1 µg/mL | >100 µg/mL | <1 µg/mL | <1 µg/mL | 0 | 
3 | Cc1ccc(C2(Cn3ccnc3)OCC(c3ccc(Cl)cc3Cl)O2)cc1 (centres undefined) | 10 µg/mL | 10 µg/mL | <1 µg/mL | 1 µg/mL | <1 µg/mL | 100 µg/mL | 100 µg/mL | 10 µg/mL | >100 µg/mL | 100 µg/mL | <1 µg/mL | >100 µg/mL | <1 µg/mL | 100 µg/mL | 0 | 
4 | Clc1cccc(C2(Cn3ccnc3)OCC(c3ccc(Cl)cc3Cl)O2)c1 (centres undefined) | 10 µg/mL | 100 µg/mL | <1 µg/mL | 100 µg/mL | <1 µg/mL | 100 µg/mL | >100 µg/mL | 100 µg/mL | 100 µg/mL | 100 µg/mL | 10 µg/mL | 100 µg/mL | 10 µg/mL | 100 µg/mL | 0 | 0
5 | Clc1ccc(C2COC(Cn3ccnc3)(c3ccc(Br)cc3)O2)cc1 (centres undefined) | 10 µg/mL | <1 µg/mL | 1 µg/mL | 100 µg/mL | <1 µg/mL | 100 µg/mL | 100 µg/mL | 100 µg/mL | 100 µg/mL | >100 µg/mL | 1 µg/mL | >100 µg/mL | <1 µg/mL | 10 µg/mL | 0 | 0
6 | Clc1ccc(C2COC(Cn3ccnc3)(c3ccccc3Cl)O2)c(Cl)c1 (centres undefined) | <1 µg/mL | <1 µg/mL | <1 µg/mL | 10 µg/mL | <1 µg/mL | 10 µg/mL | 100 µg/mL | <1 µg/mL | >100 µg/mL | >100 µg/mL | 1 µg/mL | >100 µg/mL | <1 µg/mL | <1 µg/mL |  | 0
7 | Clc1ccc(C2COC(Cn3ccnc3)(c3ccccc3Cl)O2)cc1 (centres undefined) | 10 µg/mL | <1 µg/mL | <1 µg/mL | 100 µg/mL | <1 µg/mL | 10 µg/mL | 100 µg/mL | 100 µg/mL | 100 µg/mL | 100 µg/mL | <1 µg/mL | 100 µg/mL | <1 µg/mL | <1 µg/mL |  | 
8 | COc1ccc(C2(Cn3ccnc3)OCC(c3ccc(Cl)cc3)O2)cc1 (centres undefined) | 10 µg/mL | <1 µg/mL | 10 µg/mL | 100 µg/mL | 10 µg/mL | 100 µg/mL | 100 µg/mL | >100 µg/mL | >100 µg/mL | 100 µg/mL | 10 µg/mL | >100 µg/mL | <1 µg/mL | <1 µg/mL | 0 | 
9 | Clc1ccc(C2(Cn3ccnc3)OCC(c3ccccc3)O2)cc1 (centres undefined) | 10 µg/mL | 10 µg/mL | <1 µg/mL | 10 µg/mL | <1 µg/mL | 100 µg/mL | 100 µg/mL | 10 µg/mL | >100 µg/mL | 100 µg/mL | 1 µg/mL | 100 µg/mL | <1 µg/mL | 10 µg/mL |  | 
10 | Cc1ccc(C2(Cn3ccnc3)OCC(c3ccc(Br)cc3)O2)cc1 (centres undefined) | >100 µg/mL | <1 µg/mL | <1 µg/mL | 10 µg/mL | <1 µg/mL | 10 µg/mL | >100 µg/mL | >100 µg/mL | >100 µg/mL | >100 µg/mL | <1 µg/mL | >100 µg/mL | <1 µg/mL | <1 µg/mL | 0 | 0
11 | Clc1ccccc1C1(Cn2ccnc2)OCC(c2ccc(Br)cc2)O1 (centres undefined) | 10 µg/mL | <1 µg/mL | 10 µg/mL | 10 µg/mL | <1 µg/mL | 10 µg/mL | 10 µg/mL | <1 µg/mL | 10 µg/mL | 10 µg/mL | 10 µg/mL | 100 µg/mL | <1 µg/mL | <1 µg/mL |  | 
12 | Brc1ccc(C2COC(Cn3ccnc3)(c3ccccc3)O2)cc1 (centres undefined) | 10 µg/mL | <1 µg/mL | <1 µg/mL | >100 µg/mL | <1 µg/mL | 100 µg/mL | 100 µg/mL | 10 µg/mL | >100 µg/mL | 100 µg/mL | 1 µg/mL | 100 µg/mL | <1 µg/mL | 10 µg/mL |  | 
13 | Brc1ccc(C2(Cn3ccnc3)OCC(c3ccccc3)O2)cc1 (centres undefined) | 100 µg/mL | <1 µg/mL | <1 µg/mL | 100 µg/mL | <1 µg/mL | 100 µg/mL | 100 µg/mL | 10 µg/mL | >100 µg/mL | 100 µg/mL | 10 µg/mL | 100 µg/mL | <1 µg/mL | 100 µg/mL | 0 | 0
14 | Clc1ccc(C2COC(Cn3ccnc3)(c3ccc(Br)cc3)O2)c(Cl)c1 (centres undefined) | 100 µg/mL | 10 µg/mL | 1 µg/mL | 100 µg/mL | <1 µg/mL | >100 µg/mL | >100 µg/mL | >100 µg/mL | >100 µg/mL | 100 µg/mL | 1 µg/mL | >100 µg/mL | 10 µg/mL | >100 µg/mL | 0 | 
15 | Clc1ccc(C2(Cn3ccnc3)OCC(c3ccc(Cl)cc3Cl)O2)cc1 (centres undefined) | 10 µg/mL | 10 µg/mL | <1 µg/mL | 10 µg/mL | <1 µg/mL | 100 µg/mL | 100 µg/mL | 10 µg/mL | >100 µg/mL | 100 µg/mL | 1 µg/mL | 100 µg/mL | <1 µg/mL | 100 µg/mL |  | 0
16 | Clc1ccc(C2(Cn3ccnc3)OCC(Cc3ccc(Br)cc3)O2)c(Cl)c1 (centres undefined) | 10 µg/mL | <1 µg/mL | <1 µg/mL | 10 µg/mL | <1 µg/mL | 100 µg/mL | 100 µg/mL | <1 µg/mL | >100 µg/mL | <1 µg/mL | <1 µg/mL | 10 µg/mL | <1 µg/mL | 10 µg/mL |  | 0
